Data from patent publication US11597951B2 (Lygos, Inc., priority 2018, dated 2023).

Assays:
[1] = Malonic acid solubility in water; assay type: physicochemical
[2] = tested on: MdcY-PMdcL based biosensor; test: MdcY malonate transcription factor biosensor using exogenously added malonate; assay type: cell-based, E. coli
Text: S14 employs the malonate responsive transcription factor, MdcY (SEQ ID NO:3), and the MdcY-responsive promoter, PMdcL (SEQ ID NO:6) derived from Acinetobacter calcoaceticus. This biosensor of this disclosure was constructed using an E. coli vector backbone with ampicillin resistance marker and ColE1 origin of replication; the tetA tetracycline resistance gene was placed under control of the PMdcL promoter.
Nucleic acids encoding for MdcY and TetA gene products, PMdcL promoter, and the E. coli vector backbone were synthetically produced; the biosensor vectors were than constructed by PCR amplification of the nucleic acids and subsequent cloning into the E. coli vector backbone. The plasmids were transformed into chemically competent E. coli DH10b and the resulting clones plated on LB agar plates containing 50 μg/ml carbenicillin (Cb^50). Individual colonies were grown overnight in 3 ml LB medium supplemented with antibiotic and the sequences of the purified plasmid were verified.
E. coli strain K12 was co-transformed with plasmids S14 and individual colonies isolated from LB agar plates (Cb^50). Colonies were grown in 25 ml LB broth (Cb^50) until reaching an optical density at 600 nm (OD600) of approximately 0.50, at which point in time cell stocks were prepared and stored at −80° C.; cell stocks were 0.5 ml cell culture and 0.5 ml of a 50% v/v glycerol solution.
An aliquot of biosensor cell stock was thawed and used to inoculate 50 ml of LB medium (Cb^50) in a 250 ml, baffled Erlenmeyer flask. Cultures were incubated for 2 hours at 37° C.; subsequently, 0.6 ml biosensor culture was added to 48-well plates prepared with 2.3 ml LB medium)(Cb^50) supplemented with tetracycline and malonate acid at the desired concentration (n=4). Plates were than grown at 30° C. on an orbital titer plate shaker. Following 12 hours incubation, 200 μl samples were taken for OD600 measurement.

E. coli strain K12 = test: In vivo production of malonate in E. coli using S. cerevisiae EHD3 malonyl-CoA hydrolases; assay type: cell-based
Experimental: This example describes the host cells and culture conditions resulting in the in vivo production of malonate using a heterologous EHD3 malonyl-CoA hydrolase in an E. coli host cell. E. coli strain K12 was transformed with vectors containing wild-type EHD3, EHD3 (E124A), […], EHD3 (E124S), EHD3 (E124A, E308V) or an empty vector negative control. Transformants were streaked on LB agar plates (Cm^50, 2% glucose). Following overnight growth at 37° C., individual colonies were inoculated into 3 ml LB (Cm^50, 2% glucose) in a 48-well plate. Cultures were incubated on a plate shaker at 37° C. for 6 hours, at which point each culture was inoculated 1% v/v into M9 minimal medium supplemented with Cm^50 and a mixed carbon source (0.5% glycerol, 0.05% glucose, 0.2% lactose) in a 48-well plate. Cultures were incubated on a plate shaker at 30° C., and a 500 μL sample of the fermentation broth was removed for analysis after 48 hours incubation.
Samples were centrifuged (×6000 g, 1 min) and the supernatant analyzed for malonate quantification. Chemical standards were prepared in […] of water. The separation of malonate was conducted on a Shimadzu Prominence XR UPLC connected to a refractive index detector and UV detector monitoring 210 nm. Product separation was performed on a Bio-Rad Fermentation Monitoring column. The UPLC was programmed to run isocratically using 5 mM H2504 as the eluant with a flow rate of 600 μL per minute. 10 μL were injected per sample, and the sample plate temperature was held at 4° C. Malonate standards began eluting at […]. […] Malonate concentrations (mg/1) were calculated by comparison to a standard curve prepared from authentic malonate.

[3] = tested on: S. cerevisiae BY4741 yeast cells; test: Production of malonate in yeast expressing various malonyl-CoA hydrolases; assay type: cell-based; conditions: S. cerevisiae BY4741, SD-Ura, 30° C., 140 h of fermentation; mean±S.D.; n=4
Text: Nucleic acids encoding various malonyl-CoA hydrolases provided by this disclosure [EHD3 (E124S), B9IZZ9-1, F0PNG8-1, H0NHL7, C3ALI3-1, Q81DR3-1, A4XS22-1, E2XN63-1, A5W8H3-1 and F6AA82-2] were amplified by PCR from plasmids using the primers listed in Table 4. The purified PCR products were cloned downstream of the TEF1 promoter and upstream of the CYC1 terminator in a shuttle vector containing an ampicillin resistance cassette, a PMB1 origin of replication, a CEN/ARS origin of replication and a URA3 selection marker. The resulting plasmids were transformed into E. coli competent host cells and selected on LB agar plates containing Cb^50. Following overnight incubation at 37° C., individual colonies were inoculated in 2 ml of LB-Cb^50 in a 48-well plate and grown for 5 h at 37° C. on a shaker before the plasmids were isolated and confirmed by sequencing.
S. cerevisiae BY4741 yeast cells were used as host for the vectors for expression of the various malonyl-CoA hydrolases. The plasmid vectors were individually introduced into the yeast host cells using standard procedures. […]
An individual colony for each transformant picked was inoculated into a 50 μl aliquot of SD-Ura medium in a 96-well plate. […] No malonate was detected in samples consisting of medium not inoculated with yeast cells. […]

[4] = plasmid S14, tetracycline, 12 hours, 30° C.

Molecule | Malonic acid solubility in water ([1]; 5 ° C.) | Malonic acid solubility in water ([1]; 10 ° C.) | Malonic acid solubility in water ([1]; 15 ° C.) | Malonic acid solubility in water ([1]; 20 ° C.) | Malonic acid solubility in water ([1]; 25 ° C.) | Malonic acid solubility in water ([1]; 30 ° C.) | Malonic acid solubility in water ([1]; 35 ° C.) | Malonic acid solubility in water ([1]; 40 ° C.) | Malonic acid solubility in water ([1]; 45 ° C.) | Malonic acid solubility in water ([1]; 50 ° C.) | Malonic acid solubility in water ([1]; 55 ° C.) | Malonic acid solubility in water ([1]; 60 ° C.) | Malonic acid solubility in water ([1]; 65° C.) | solubility limit ([1]; 65° C.) | biosensor response ([2]; cultures harboring S14) | dynamic range (maximum difference in OD600 between fully induced samples and samples absent malonate) [2, 4] | exogenously added malonate concentration over which an increase in OD600 was observed [2, 4] | malonate production relative to wild-type EHD3 (E. coli strain K12; E. coli K12, 48 hours) | Malonate Concentration (E. coli strain K12; E. coli K12, M9 minimal medium, 30° C., 48 hours, mean±std dev, n=3) | Malonate Peak Area [3]
O=C(O)CC(=O)O [malonic acid, propanedioic acid] | 53.92 % (w/w) | 55.75 % (w/w) | 57.63 % (w/w) | 59.68 % (w/w) | 61.69 % (w/w) | 63.5 % (w/w) | 65.28 % (w/w) | 67.43 % (w/w) | 68.85 % (w/w) | 70.33 % (w/w) | 72.38 % (w/w) | 74.29 % (w/w) | 75.96 % (w/w) | 76 % wt/wt | dose-dependent response | 1.2 OD600 units | 0.5 to 1 mM |  |  | 
EHD3 (E124S) (protein, UniProt P28817 1-500, looked up, variant E124S) Small ribosomal subunit …: MLRNTLKCAQLSSKYGFKTTTRTFMTTQPQLNVTDAPPVLFTVQDTARVITLNRPKKLNALNAEMSESMFKTLNEYAKSDTTNLVILKSSNRPRSFCAGGDVATVAIFNFNKEFAKSIKFFTDSYSLNFQIATYLKPIVTFMDGITMGGGVGLSIHTPFRIATENTKWAMPEMDIGFFPDVGSTFALPRIVTLANSNSQMALYLCLTGEVVTGADAYMLGLASHYVSSENLDALQKRLGEISPPFNNDPQSAYFFGMVNESIDEFVSPLPKDYVFKYSNEKLNVIEACFNLSKNGTIEDIMNNLRQYEGSAEGKAFAQEIKTKLLTKSPSSLQIALRLVQENSRDHIESAIKRDLYTAANMCMNQDSLVEFSEATKHKLIDKQRVPYPWTKKEQLFVSQLTSITSPKPSLPMSLLRNTSNVTWTQYPYHSKYQLPTEQEIAAYIEKRTNDDTGAKVTEREVLNHFANVIPSRRGKLGIQSLCKIVCERKCEEVNDGLRWK |  |  |  |  |  |  |  |  |  |  |  |  |  |  |  |  |  | significant (p<0.05, t-test) increase | 82.3 ± 7.8 mg/L | 94,721 ± 8,115
